One assay has as its target HLA-B*42:01 (Homo sapiens, UniProt P01889, D138N/E176V/E187T/K202T/R180D). Nature of the assay: biochemical. In kind it is binding.
The test system of assay [1] is HIV-specific CD8^+ T-cell responses. Nature of the assay: IFNγ ELISpot with overlapping and optimal peptides. In kind it is cell-based, human. As to conditions: IFNγ ELISpot responders among HLA-B*42:01^+ individuals, stratified for lack of HLA-B*07:02/39:10/42:02/81:01 co-expression (n=154).

The values that follow come from article PMC4433859 (Journal of immunology (Baltimore, Md. : 1950), 2015).

Where no end group is shown, it is not given here.

One may read the Kd as the equilibrium constant for the complex coming apart. Read a high Kd as lower affinity. Sequence IIKDYGKQM [Int-IM9] gave a Kd at HLA-B*42:01 of 19 nM.
As for KVVPRRKAKIIKDYGKQM [Int-275], the targeting frequency in assay [1] was found to be 53%.
